In patent US20250042889A1, “3CLPRO PROTEASE INHIBITOR” (SHANGHAI QILU PHARMACEUTICAL RESEARCH AND DEVELOPMENT …, priority 2021, published 2025) one finds IC50 data, which are given here for 48 compounds.

Where only a bound is given, the exact number is not on record here.

The target of the first test is SARS-COV-2 3CLpro/Mpro protease (Severe acute respiratory syndrome coronavirus 2 (2019-nCoV) (SARS-CoV-2), UniProt P0DTD1). In words: Inhibitory effect on SARS-COV-2 3CLpro/Mpro protease by fluorescence resonance energy transfer. The test is classed as biochemical. The note with it: IC50 (nM), Inhibition on SARS-CoV-2 3CLpro/Mpro protease, activity intervals A-D.
The compound `CNc1cncc(C(=O)N2CCC[C@@H](Nc3c(C(=O)N4C5CCCC4CCC5)cc(Br)cc3[N+](=O)[O-])C2)c1` [Example 292] registered an IC50 of 10 to 50 nM.

In the case of `CNc1cncc(C(=O)N2CCC[C@@H](Nc3c(C(=O)N4CC5C=CC(C4)N5)cc(Br)cc3[N+](=O)[O-])C2)c1` [Example 335], the IC50 is 10 to 50 nM.

Staying with this test, now noted: activity intervals A-D, read-out: IC50 (nM), Inhibition on SARS-CoV-2 3CLpro/Mpro protease.
With `CO[C@H]1CN(C(=O)c2cncc3[nH]ccc23)C[C@@H]1Nc1c(C(=O)N2C[C@@H](C)O[C@@H](C)C2)cc(Br)cc1[N+](=O)[O-]` [Example 423], the IC50 was 10 to 50 nM. Same read-out and setting: to `O=C(c1cncc(O)c1)N1CCC[C@@H](Nc2c(C(=O)N3CCC(F)(F)CC3)cc(Br)cc2[N+](=O)[O-])C1` [Example 50] belongs 50 to 100 nM; to `C[C@@H]1CN(C(=O)c2cc(Br)cc([N+](=O)[O-])c2N[C@@H]2CCCN(C(=O)c3cc(=O)[nH]c4ccccc34)C2)CCO1` [Example 140], 10 to 50 nM. For the compound `Cc1cc(C(=O)N2CC(Nc3c(C(=O)N4CCC5(CCCCC5)CC4)cc(Br)cc3[N+](=O)[O-])C(F)(F)C2)cc(=O)[nH]1` (stereo not drawn) [Example 160], the IC50 was 10 to 50 nM. As for `CNc1cncc(C(=O)N2C[C@H](Nc3c(C(=O)N4C[C@@H](C)O[C@@H](C)C4)cc(Br)cc3[N+](=O)[O-])[C@@H](OCc3nccs3)C2)c1` [Example 461], the IC50 is 10 to 50 nM. For the compound `CNc1cncc(C(=O)N2C[C@H](Nc3c(C(=O)N4C[C@@H](C)O[C@@H](C)C4)cc(Br)cc3[N+](=O)[O-])C[C@H]2C(=O)Nc2ccnc(F)c2)c1` [Example 415], the IC50 was 50 to 100 nM. The same measure, in the same setting: to `CNc1cncc(C(=O)N2C[C@H](Nc3c(C(=O)N4C[C@@H](C)O[C@@H](C)C4)cc(Br)cc3[N+](=O)[O-])C[C@H]2C(=O)Nc2cc(C(F)(F)F)ncn2)c1` [Example 436, (2S,4R)-4-((4-bromo-2-((2R,6S)-2,6-dimethylmorpholin-4-carbonyl)-6-nitrophenyl)amino)-1-(5-(methylamino)nicotinoyl)-N-(6-(trifluoromethyl)pyrimidin-4-yl) pyrrolidine-2-formamide] belongs 50 to 100 nM; to `Cc1cc(C(=O)N2CC(Nc3c(C(=O)N4CCC(C)(C)CC4)cc(Br)cc3[N+](=O)[O-])C(F)(F)C2)cc(=O)[nH]1` (stereo not drawn) [Example 155], 50 to 100 nM; to `CNc1cncc(C(=O)N2CCC[C@@H](Nc3c(C(=O)N4CC=C(F)CC4)cc(Br)cc3[N+](=O)[O-])C2)c1` [Example 337, (R)-(5-Bromo-2-((1-(5-(methylamino)nicotinoyl)piperidin-3-yl)amino)-3-nitrophenyl)(4-fluoro-3,6-dihydropyridin-1 (2H)-yl)methanone], 10 to 50 nM.

With `C[C@@H]1CN(C(=O)c2cc(Br)cc([N+](=O)[O-])c2N[C@@H]2COCC[C@@H]2NC(=O)c2cncc3ccccc23)C[C@H](C)O1` [Example 214], the IC50 was 10 to 50 nM.

With `CNc1cnc(F)c(C(=O)N2C[C@H](Nc3c(C(=O)N4C[C@@H](C)O[C@@H](C)C4)cc(Br)cc3[N+](=O)[O-])[C@@H](OC)C2)c1` [Example 406], the IC50 is 50 to 100 nM. Consider `C[C@@H]1CN(C(=O)c2cc(Br)cc([N+](=O)[O-])c2N[C@@H]2CCCN(C(=O)[C@H]3CC(=O)Nc4ccccc43)C2)CCO1` [Example 282], for which the IC50 was 10 to 50 nM. Still for that read-out and setting: to `CNc1cncc(C(=O)N2C[C@H](Nc3c(C(=O)N4CCCC(F)(F)C4)cc(Br)cc3[N+](=O)[O-])[C@@H](OC)C2)c1` [Example 374] belongs 10 to 50 nM; to `CNc1cncc(C(=O)N2CCC[C@@H](Nc3c(C(=O)N4C[C@@H](C)C[C@H](C)C4)cc(Br)cc3[N+](=O)[O-])C2)c1` [Example 257], 10 to 50 nM; to `O=C(c1cc(Br)cc(C(F)(F)F)c1N[C@@H]1CCCN(C(=O)c2cncc3ccccc23)C1)N1CCCCC1` [Example 67], 10 to 50 nM.

Regarding `CNc1cncc(C(=O)N2CC(Nc3c(C(=O)N4CCC(C)(C)CC4)cc(Br)cc3[N+](=O)[O-])C(C)(C)C2)c1` (stereo not drawn) [Example 175], the IC50 was in the range of 10 to 50 nM. In the case of `CNc1cncc(C(=O)N2CC(Nc3c(C(=O)N4CCC[C@@H](C)C4)cc(Br)cc3[N+](=O)[O-])C(C)(C)C2)c1` (stereo partly drawn) [Example 174], the IC50 lay in the range of 10 to 50 nM.

Take `C[C@@H]1CN(C(=O)c2cc(Br)cc([N+](=O)[O-])c2N[C@@H]2CCCN(C(=O)c3cncc(Br)c3)C2)C[C@H](C)N1` [Example 73]: the IC50 fell in the range of 10 to 50 nM. The same measure, in the same setting: next, `O=C(N[C@H]1COCC[C@H]1Nc1c(C(=O)N2CCCCC2)cc(Br)cc1[N+](=O)[O-])c1cncc2ccccc12` [Example 194]: 10 to 50 nM; `CNc1cncc(C(=O)N[C@H]2CCOC[C@H]2Nc2c(C(=O)N3CCC[C@@H](C)C3)cc(Br)cc2[N+](=O)[O-])c1` [Example 226]: 10 to 50 nM. For the compound `COCCN1CCN(C(=O)c2cc(Br)cc([N+](=O)[O-])c2NC2CN(C(=O)c3cncc(I)c3)CC2(F)F)CC1` (stereo not drawn) [Example 181], the IC50 was in the range of 10 to 50 nM. For `Nc1cncc(C(=O)N2CCC[C@@H](Nc3c(C(=O)N4CCC(F)(F)CC4)cc(Br)cc3[N+](=O)[O-])C2)c1` [Example 71], the IC50 was 10 to 50 nM. `Cc1cc(C(=O)N2CCC[C@@H](Nc3c(C(=O)N4C[C@@H](C)O[C@@H](C)C4)cc(Br)cc3[N+](=O)[O-])C2)cc(=O)[nH]1` [Example 27, 4-((R)-3-((4-bromo-2-((2S,6R)-2,6-dimethylmorpholin-4-carbonyl)-6-nitrophenyl)amino)piperidin-1-carbonyl)-6-methylpyridin-2 (1H)-one]: the IC50 fell in the range of 10 to 50 nM. On the same count and under the same terms, to `CNc1cncc(C(=O)N2C[C@H](Nc3c(C(=O)N4C[C@@H](C)O[C@@H](C)C4)cc(Br)cc3[N+](=O)[O-])C[C@H]2C(=O)N[C@H]2CCOC2)c1` [Example 402] belongs 50 to 100 nM; to `Cc1cc(C(=O)N2CCC[C@@H](Nc3c(C(=O)N4CCC(F)(F)CC4)cc(Br)cc3[N+](=O)[O-])C2)cc(=O)[nH]1` [Example 108], 10 to 50 nM; to `CNc1cncc(C(=O)N2CC(Nc3c(C(=O)N4CCCCC4)cc(Br)cc3[N+](=O)[O-])C(F)(F)C2)c1` (stereo not drawn) [Example 32, (5-Bromo-2-((4,4-difluoro-1-(5-(methylamino)nicotinoyl)pyrrolidin-3-yl)amino)-3-nitrophenyl)(piperidin-1-yl)methanone], 10 to 50 nM. On the same count and under the same terms, next, `CNc1cncc(C(=O)N2CCC[C@@H](Nc3c(C(=O)N4CCC5(CCCO5)CC4)cc(Br)cc3[N+](=O)[O-])C2)c1` [Example 268]: less than 10 nM. As to `C[C@H]1C[C@H](C)CN(C(=O)c2cc(Br)cc([N+](=O)[O-])c2N[C@@H]2CCCN(C(=O)[C@H]3CC(=O)N[C@@H](C)C3)C2)C1` [Example 262], the IC50 lay within 10 to 50 nM. For the compound `CNc1cncc(C(=O)N2C[C@H](Nc3c(C(=O)N4C[C@@H](C)O[C@@H](C)C4)cc(Br)cc3[N+](=O)[O-])[C@@H](OCc3ncco3)C2)c1` [Example 460], the IC50 is 10 to 50 nM. Same read-out and setting: next, `O=C(N[C@H]1CCCC[C@H]1Nc1c(C(=O)N2C[C@@H](O)CO2)cc(Br)cc1[N+](=O)[O-])c1cncc2cc(Cl)ccc12` [Example 122]: 10 to 50 nM; `CNc1cncc(C(=O)N[C@H]2CCOC[C@H]2Nc2c(C(=O)N3CCN(CCOC)CC3)cc(Br)cc2[N+](=O)[O-])c1` [Example 221]: 10 to 50 nM. The same measure, in the same setting: to `CCn1cc(Br)c(NC(=O)[C@@H]2C[C@@H](Nc3c(C(=O)N4C[C@@H](C)O[C@@H](C)C4)cc(Br)cc3[N+](=O)[O-])CN2C(=O)c2cncc(NC)c2)n1` [Example 409] belongs 50 to 100 nM. The same measure, in the same setting: next, `CNc1cncc(C(=O)N2CCC[C@@H](Nc3c(C(=O)N4CCOC[C@@H]4C)cc(Br)cc3[N+](=O)[O-])C2)c1` [Example 356]: 10 to 50 nM; `O=C(N[C@H]1CCCC[C@H]1Nc1c(C(=O)N2CCC(N3CCOCC3)CC2)cc(Br)cc1C(F)(F)F)c1cncc2cc(Cl)ccc12` [Example 109]: 10 to 50 nM; `Cc1cc(C(=O)N2C[C@H](Nc3c(C(=O)N4CCN(CC(F)(F)F)CC4)cc(Br)cc3[N+](=O)[O-])C3(CC3)C2)cc(=O)[nH]1` [Example 90]: 10 to 50 nM. As for `CNc1cncc(C(=O)N2C[C@H](Nc3c(C(=O)N4CC5C(C4)C5(C)C)cc(Br)cc3[N+](=O)[O-])C3(CC3)C2)c1` (stereo partly drawn) [Example 83], the IC50 is 10 to 50 nM. In the case of `O=C(c1cc(Br)cc([N+](=O)[O-])c1N[C@@H]1CCCN(C(=O)c2cc(=O)[nH]c3ccccc23)C1)N1CCN(CC(F)(F)F)CC1` [Example 138], the IC50 was in the range of 10 to 50 nM. The same measure, in the same setting: to `CNc1cncc(C(=O)N2C[C@H](Nc3c(C(=O)N4C[C@@H](C)O[C@@H](C)C4)cc(Br)cc3[N+](=O)[O-])C[C@H]2C#Cc2ccn(C)n2)c1` [Example 414] belongs 100 to 200 nM; to `O=C(NN1CCOCC1)c1cc(Br)cc([N+](=O)[O-])c1N[C@@H]1CCCN(C(=O)c2cncc(I)c2)C1` [Example 137], 10 to 50 nM. Turning to `CC1(O)CCN(C(=O)c2cc(Br)cc(C(F)(F)F)c2N[C@@H]2CCCC[C@@H]2NC(=O)c2cncc3cc(Cl)ccc23)CC1` [Example 169], the IC50 was 10 to 50 nM.

Regarding `CC(=O)Nc1cncc(C(=O)N2CCC[C@@H](Nc3c(C(=O)N4CCCCC4)cc(Br)cc3[N+](=O)[O-])C2)c1` [Example 216], the IC50 lay in the range of 10 to 50 nM. `CC1(Nc2c(C(=O)N3CCCCC3)cc(Br)cc2[N+](=O)[O-])CCCN(C(=O)c2cncc3ccccc23)C1` (stereo not drawn) [Example 102]: the IC50 lay in the range of 10 to 50 nM. Still for that read-out and setting: to `CC1(O)CN(C(=O)c2cncc(Br)c2)C[C@@H]1Nc1c(C(=O)N2CCCCC2)cc(Br)cc1[N+](=O)[O-]` (stereo partly drawn) [Example 246] belongs 10 to 50 nM; to `CNc1cncc(C(=O)N2C[C@H](Nc3c(C(=O)N4C[C@@H](C)O[C@@H](C)C4)cc(Br)cc3[N+](=O)[O-])C(C)(C)C2)c1` [Example 162], 10 to 50 nM. Same read-out and setting: to `CNc1cncc(C(=O)N2C[C@H](Nc3c(C(=O)N4C[C@@H](C)O[C@@H](C)C4)cc(Br)cc3[N+](=O)[O-])C[C@H]2C(=O)Nc2ccnc(C(F)(F)F)n2)c1` [Example 428] belongs 50 to 100 nM. For `CNc1cncc(C(=O)N2C[C@H](Nc3c(C(=O)N4C[C@@H](C)O[C@@H](C)C4)cc(Br)cc3[N+](=O)[O-])C[C@H]2C(=O)Nc2nn(CC(F)(F)F)cc2Br)c1` [Example 417], the IC50 lay within 50 to 100 nM.
